In test [1] the test system is E6SM. The test can be described thus: Cytotoxic activity of compound against E6SM cell line; No toxicity. Format: functional, cell-based. The following applies: Homo sapiens.
Test [2] has as its system HEL. In words: Cytotoxic activity of compound against HEL cell line; No toxicity. Format: functional, cell-based. The settings on record: Homo sapiens.
Test [3] concerns HeLa. The test can be described thus: Cytotoxic activity of compound against HeLa cell line; No toxicity. The settings on record: Homo sapiens. It counts as functional, cell-based.
The subject of test [4] is Trypanosoma brucei. The test can be described thus: (§1) Inhibition of growth of Trypanosoma uM). It counts as functional, organism-based.
In test [5] the test system is Trypanosoma brucei. Described as §1. It counts as functional, organism-based. The source holds these as a separate data set.
For test [6], the system named is Trypanosoma brucei. Described as §1. It counts as functional, organism-based. The source holds these as a separate data set.
Test [7] deals with Trypanosoma brucei. The test is described as §1. It counts as functional, organism-based. The source holds these as a separate data set.
For test [8], the system named is Vero. In words: Cytotoxic activity of compound against Vero cell line; No toxicity. It counts as functional, cell-based. The following applies: Chlorocebus sabaeus.
Test [9] deals with Trypanosoma brucei. In words: (§2) Inhibition of growth of Trypanosoma uM concentration. It counts as functional.
For test [10], the system named is Trypanosoma brucei. Described as §2. Format: functional. This is another data set of the same source.
Test [11] concerns Trypanosoma brucei. The test is described as §2. It counts as functional, organism-based.
Test [12] has as its system Trypanosoma brucei. The test is described as §2. Format: functional, organism-based. This is another data set of the same source.
Test [13] concerns Trypanosoma brucei. Described as §2. Format: functional, organism-based. The source holds these as a separate data set.
Test [14] relates to Trypanosoma brucei. Described as §2. Format: functional, organism-based. This is another data set of the same source.

Active and inactive are the calls of the source. The rule behind the calls is not given here.

Among the data in ChEMBL document CHEMBL1129948, “Synthesis and anti-trypanosomal activity of various 8-aza-7-deaza-5'noraristeromycin derivatives” (J Med Chem, 1997) are Cytotoxic activity, IC50 and Inhibition values, retold here.

For the molecule `C[C@@H]1C[C@H](n2ncc3c(N)ncnc32)[C@@H](O)[C@H]1O`, the Cytotoxic activity entry in test [1], in [2], in [3] and in [8] was “No toxicity” throughout. The IC50 in test [4], in test [5], in test [6] and in test [7] was over 100 µM each time.

Consider `Nc1ncnc2c1cnn2[C@H]1CC[C@H](O)[C@@H]1O`, for which the Cytotoxic activity entry in test [1], in [2], in [3] and in [8] was “No toxicity” in each case. Also, the Inhibition was 23% in test [9] and 37% in test [10].

With `Nc1ncnc2c1cnn2[C@H]1C=C[C@@H](O)C1`, the Cytotoxic activity result in [1], in test [2], in test [3] and in test [8] was “No toxicity” each time. Further, the IC50 in test [4], in [5], in test [6] and in test [7] was over 100 µM throughout.

Regarding `Nc1ncnc2c1cnn2[C@H]1C=C[C@H](O)[C@@H]1O`, the Cytotoxic activity entry in test [1], in test [2], in [3] and in test [8] was “No toxicity” throughout. In addition, the half-inhibitory concentration (IC50) in test [11] and in test [12] was over 100 µM in each case.

Consider `C[C@H]1C[C@@H](n2ncc3c(N)ncnc32)[C@H](O)[C@@H]1O`, for which the Cytotoxic activity entry in test [1], in [2], in [3] and in test [8] was “No toxicity” each time. Also, the figures for the 50% inhibitory concentration (IC50) in test [11], in test [12] and in test [13] were 12.2 µM, 16.8 µM and 14 µM, respectively.

With `Nc1ncnc2c1cnn2[C@@H]1C[C@H](O)[C@@H](O)[C@H]1O`, the Cytotoxic activity result in test [1], in test [2], in test [3] and in test [8] was “No toxicity” in each case. The IC50 in test [4] and in test [5] was over 100 µM each time.

Regarding `Nc1ncnc2c1cnn2[C@@H]1C=C[C@@H](O)[C@H]1O`, the Cytotoxic activity result in test [1], in test [2], in test [3] and in test [8] was “No toxicity” in each case. Further, the IC50 in [4], in [5], in [6] and in test [7] was over 100 µM throughout.

Turning to `Nc1ncnc2c1ccn2[C@H]1C[C@@H](O)[C@H](O)[C@@H]1O`, the Cytotoxic activity entry in test [1], in test [2] and in test [8] was “inactive” each time. Also, the Cytotoxic activity entry in [3] was “Non-toxic”. Besides, the IC50 in test [11] was 0.85 µM; in [14] it was 5.3 µM; in test [13], 1.55 µM.

`Nc1ncnc2c1cnn2[C@@H]1CC[C@@H](O)[C@H]1O`: the Cytotoxic activity result in test [1], in test [2], in [3] and in test [8] was “No toxicity” in each case. The IC50 in test [4], in [5], in [6] and in [7] was over 100 µM each time.

`Nc1ncnc2c1cnn2[C@H]1C[C@@H](O)[C@H](O)[C@@H]1O`: the Cytotoxic activity result in test [1], in test [2], in test [3] and in test [8] was “No toxicity” in each case. In addition, the IC50 in test [11] is 53 µM; in test [12] it was 44 µM; in test [14], 72 µM; in test [13] it was 67 µM.

For `Nc1ncnc2c1cnn2[C@@H]1C=C[C@H](O)C1`, the Cytotoxic activity result in test [1], in test [2], in test [3] and in test [8] was “No toxicity” in each case. Besides, the IC50 in test [4] and in [5] was over 100 µM throughout.
